Reference: the NIST ThermoML archive (doi:10.1016/j.jct.2008.02.020)

Conditions: Liquid, Buoyancy - hydrostatic balance with magnetic suspension - one sinker

Brc1ccccc1 [bromobenzene]
Conditions	mass density [kg/m3]
353.15 K, 29956 kPa	1447.5
373.15 K, 98.54 kPa	1384.07
373.15 K, 1150.1 kPa	1385.64
373.15 K, 2174.4 kPa	1387.16
373.15 K, 3917.7 kPa	1389.71
373.15 K, 6182.4 kPa	1392.96
373.15 K, 8042.7 kPa	1395.57
373.15 K, 10003 kPa	1398.28
373.15 K, 12008 kPa	1400.99
373.15 K, 14086 kPa	1403.76
373.15 K, 15913 kPa	1406.15
373.15 K, 18066 kPa	1408.91
373.15 K, 19882 kPa	1411.21
373.15 K, 22174 kPa	1414.05
373.15 K, 24053 kPa	1416.33
373.15 K, 25897 kPa	1418.54
373.15 K, 27711 kPa	1420.7
373.15 K, 29531 kPa	1422.85
393.15 K, 97.33 kPa	1355.66
393.15 K, 1226 kPa	1357.56
393.15 K, 2181.2 kPa	1359.15
393.15 K, 3965.3 kPa	1362.08
393.15 K, 6075.4 kPa	1365.47
393.15 K, 8146.9 kPa	1368.75
393.15 K, 9937.3 kPa	1371.46
393.15 K, 11970 kPa	1374.53
393.15 K, 14177 kPa	1377.78
393.15 K, 15956 kPa	1380.34
393.15 K, 18164 kPa	1383.47
393.15 K, 20147 kPa	1386.23
393.15 K, 22176 kPa	1389
393.15 K, 23982 kPa	1391.42
393.15 K, 26170 kPa	1394.3
393.15 K, 28005 kPa	1396.7
393.15 K, 29542 kPa	1398.68
413.15 K, 99.45 kPa	1326.55
413.15 K, 1202.8 kPa	1328.65
413.15 K, 2177.1 kPa	1330.51
413.15 K, 3915.5 kPa	1333.73
413.15 K, 6185.5 kPa	1337.83
413.15 K, 8176.1 kPa	1341.33
413.15 K, 10032 kPa	1344.48
413.15 K, 12104 kPa	1348.01
413.15 K, 13992 kPa	1351.03
413.15 K, 15890 kPa	1354.12
413.15 K, 18162 kPa	1357.68
413.15 K, 19933 kPa	1360.41
413.15 K, 22150 kPa	1363.74
413.15 K, 24133 kPa	1366.66
413.15 K, 26039 kPa	1369.41
413.15 K, 27898 kPa	1372.06
413.15 K, 29858 kPa	1374.81
433.15 K, 1243.8 kPa	1299.09
433.15 K, 1973.3 kPa	1300.66
433.15 K, 4075.9 kPa	1305.09
433.15 K, 6197.8 kPa	1309.43
433.15 K, 7981.5 kPa	1312.95
433.15 K, 10020 kPa	1316.91
433.15 K, 12073 kPa	1320.75
433.15 K, 14034 kPa	1324.34
433.15 K, 15960 kPa	1327.77
433.15 K, 17921 kPa	1331.19
433.15 K, 19992 kPa	1334.75
433.15 K, 21950 kPa	1337.95
433.15 K, 24018 kPa	1341.31
433.15 K, 26143 kPa	1344.68
433.15 K, 28052 kPa	1347.64
433.15 K, 29864 kPa	1350.43
453.15 K, 1135.4 kPa	1268.14
453.15 K, 1982.5 kPa	1270.24
453.15 K, 4017.7 kPa	1275.16
453.15 K, 6189 kPa	1280.22
453.15 K, 7994.2 kPa	1284.28
453.15 K, 10139 kPa	1288.98
453.15 K, 12157 kPa	1293.2
453.15 K, 13982 kPa	1296.94
453.15 K, 16134 kPa	1301.21
453.15 K, 18122 kPa	1305.05
453.15 K, 19974 kPa	1308.56
453.15 K, 22141 kPa	1312.52
453.15 K, 24115 kPa	1316.05
453.15 K, 26121 kPa	1319.56
453.15 K, 28034 kPa	1322.83
453.15 K, 29912 kPa	1325.98
473.15 K, 1191.2 kPa	1236.28
473.15 K, 2175.4 kPa	1239.12
473.15 K, 4131.5 kPa	1244.58
473.15 K, 5988.1 kPa	1249.54
473.15 K, 8161.4 kPa	1255.13
473.15 K, 10165 kPa	1260.08
473.15 K, 12166 kPa	1264.85
473.15 K, 14163 kPa	1269.43
473.15 K, 16125 kPa	1273.8
473.15 K, 18167 kPa	1278.2
473.15 K, 20146 kPa	1282.35
473.15 K, 22123 kPa	1286.36
473.15 K, 24157 kPa	1290.39
473.15 K, 26075 kPa	1294.08
473.15 K, 28020 kPa	1297.73
473.15 K, 29860 kPa	1301.12
